From BindingDB's records for doi:10.1016/j.bioorg.2016.07.013 (Shenyang Pharmaceutical University, 2016)

How the values were obtained:
[1] = target: Acetylcholinesterase (Homo sapiens, UniProt P22303); experiment: AChE and BuChE Inhibition Assay; conditions: pH 8
Procedure: (§1) The reaction mixture was consisted of 100 µL of the total volume.

[2] = target: Cholinesterase (Homo sapiens, UniProt P06276); experiment: AChE and BuChE Inhibition Assay; conditions: pH 8
Procedure: as §1

Acetylcholinesterase, sequence (P22303 whole entry): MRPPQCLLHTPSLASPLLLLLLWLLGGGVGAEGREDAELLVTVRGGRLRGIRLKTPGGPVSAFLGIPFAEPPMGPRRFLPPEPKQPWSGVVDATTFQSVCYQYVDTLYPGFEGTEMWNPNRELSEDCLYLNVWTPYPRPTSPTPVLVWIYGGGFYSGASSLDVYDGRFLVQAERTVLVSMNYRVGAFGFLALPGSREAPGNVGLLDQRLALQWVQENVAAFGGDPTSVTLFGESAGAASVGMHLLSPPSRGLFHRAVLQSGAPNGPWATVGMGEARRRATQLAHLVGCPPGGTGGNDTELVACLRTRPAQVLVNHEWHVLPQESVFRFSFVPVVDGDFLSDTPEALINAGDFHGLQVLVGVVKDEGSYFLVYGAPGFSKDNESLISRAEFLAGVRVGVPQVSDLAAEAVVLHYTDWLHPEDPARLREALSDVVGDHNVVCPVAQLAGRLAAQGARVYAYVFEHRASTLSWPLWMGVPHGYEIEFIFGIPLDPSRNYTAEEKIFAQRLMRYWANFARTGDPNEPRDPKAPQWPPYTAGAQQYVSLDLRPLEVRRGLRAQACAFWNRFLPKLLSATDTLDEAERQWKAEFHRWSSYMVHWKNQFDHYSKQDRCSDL
Cholinesterase, sequence (P06276 whole entry): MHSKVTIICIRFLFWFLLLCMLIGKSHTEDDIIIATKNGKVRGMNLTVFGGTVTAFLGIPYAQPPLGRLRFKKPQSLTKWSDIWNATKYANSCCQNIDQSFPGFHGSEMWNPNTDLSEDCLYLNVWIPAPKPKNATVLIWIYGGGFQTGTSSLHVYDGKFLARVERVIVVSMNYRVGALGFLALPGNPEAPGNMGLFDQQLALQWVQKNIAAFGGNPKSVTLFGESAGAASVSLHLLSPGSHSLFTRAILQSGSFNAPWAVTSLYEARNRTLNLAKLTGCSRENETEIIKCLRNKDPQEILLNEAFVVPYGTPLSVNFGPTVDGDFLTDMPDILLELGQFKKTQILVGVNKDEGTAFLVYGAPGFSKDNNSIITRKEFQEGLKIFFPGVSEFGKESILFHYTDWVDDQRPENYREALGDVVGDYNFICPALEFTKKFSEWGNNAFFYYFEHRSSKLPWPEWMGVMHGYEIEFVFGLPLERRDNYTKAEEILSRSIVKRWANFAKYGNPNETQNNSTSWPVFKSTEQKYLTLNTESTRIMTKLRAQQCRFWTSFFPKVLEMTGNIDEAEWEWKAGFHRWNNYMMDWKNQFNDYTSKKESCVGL

SMILES	IC50 [1]	IC50 [2]
CCN1CCN(Cc2ccc(NC(=O)c3cc4cc(Br)ccc4oc3=O)cc2Cl)CC1 [6-Bromo-N-(3-chloro-4-((4-ethylpiperazin-1-yl)methyl)phenyl)-2-oxo-2H-chromene-3-carboxamide (9t)]	120 nM	
CN1CCN(Cc2ccc(NC(=O)c3cc4cc(Br)ccc4oc3=O)cc2Cl)CC1 [6-Bromo-N-(3-chloro-4-((4-methylpiperazin-1-yl)methyl)phenyl)-2-oxo-2H-chromene-3-carboxamide (9u)]	330 nM	1890 nM
CCN1CCN(Cc2ccc(NC(=O)c3cc4cc(Cl)ccc4oc3=O)cc2Cl)CC1 [6-Chloro-N-(3-chloro-4-((4-ethylpiperazin-1-yl)methyl)phenyl)-2-oxo-2H-chromene-3-carboxamide (9p)]	222 nM	
CN1CCN(Cc2ccc(NC(=O)c3cc4cc(Cl)ccc4oc3=O)cc2Cl)CC1 [6-Chloro-N-(3-chloro-4-((4-methylpiperazin-1-yl)methyl)phenyl)-2-oxo-2H-chromene-3-carboxamide (9q)]	841 nM	1790 nM
COc1ccc2cc(C(=O)Nc3ccc(CN4CCN(C)CC4)c(C(F)(F)F)c3)c(=O)oc2c1 [7-Methoxy-N-(4-((4-methylpiperazin-1-yl)methyl)-3-(trifluoromethyl)phenyl)-2-oxo-2H-chromene-3-carboxamide (9j)]	591 nM	
COc1cccc2cc(C(=O)Nc3ccc(CN4CCN(C)CC4)c(C(F)(F)F)c3)c(=O)oc12 [8-Methoxy-N-(4-((4-methylpiperazin-1-yl)methyl)-3-(trifluoromethyl)phenyl)-2-oxo-2H-chromene-3-carboxamide (9d)]	1450 nM	
CCN1CCN(Cc2ccc(NC(=O)c3cc4ccccc4oc3=O)cc2Cl)CC1 [N-(3-chloro-4-((4-ethylpiperazin-1-yl)methyl)phenyl)-2-oxo-2H-chromene-3-carboxamide (9l)]	1300 nM	1590 nM
CCN1CCN(Cc2ccc(NC(=O)c3cc4cc([N+](=O)[O-])ccc4oc3=O)cc2Cl)CC1 [N-(3-chloro-4-((4-ethylpiperazin-1-yl)methyl)phenyl)-6-nitro-2-oxo-2H-chromene-3-carboxamide (9x)]	34 nM	
CCN1CCN(Cc2ccc(NC(=O)c3cc4ccc(OC)cc4oc3=O)cc2Cl)CC1 [N-(3-chloro-4-((4-ethylpiperazin-1-yl)methyl)phenyl)-7-methoxy-2-oxo-2H-chromene-3-carboxamide (9f)]	122 nM	
CCN1CCN(Cc2ccc(NC(=O)c3cc4cccc(OC)c4oc3=O)cc2Cl)CC1 [N-(3-chloro-4-((4-ethylpiperazin-1-yl)methyl)phenyl)-8-methoxy-2-oxo-2H-chromene-3-carboxamide (9a)]	195 nM	
CN1CCN(Cc2ccc(NC(=O)c3cc4ccccc4oc3=O)cc2Cl)CC1 [N-(3-chloro-4-((4-methylpiperazin-1-yl)methyl)phenyl)-2-oxo-2H-chromene-3-carboxamide (9k)]	1300 nM	1970 nM
CN1CCN(Cc2ccc(NC(=O)c3cc4cc([N+](=O)[O-])ccc4oc3=O)cc2Cl)CC1 [N-(3-chloro-4-((4-methylpiperazin-1-yl)methyl)phenyl)-6-nitro-2-oxo-2H-chromene-3-carboxamide (9y)]	807 nM	1880 nM
COc1ccc2cc(C(=O)Nc3ccc(CN4CCN(C)CC4)c(Cl)c3)c(=O)oc2c1 [N-(3-chloro-4-((4-methylpiperazin-1-yl)methyl)phenyl)-7-methoxy-2-oxo-2H-chromene-3-carboxamide (9g)]	1540 nM	1680 nM
COc1cccc2cc(C(=O)Nc3ccc(CN4CCN(C)CC4)c(Cl)c3)c(=O)oc12 [N-(3-chloro-4-((4-methylpiperazin-1-yl)methyl)phenyl)-8-methoxy-2-oxo-2H-chromene-3-carboxamide (9b)]	1220 nM	1770 nM
CN1CCN(Cc2ccc(NC(=O)c3cc4ccccc4oc3=O)cc2C(F)(F)F)CC1 [N-(4-((4-methylpiperazin-1-yl)methyl)-3-(trifluoromethyl)phenyl)-2-oxo-2H-chromene-3-carboxamide (9o)]	618 nM	
